Source: patent US9156829B2, “Cycloalkyl and heterocycloalkyl compounds as orexin receptor antagonists” (Takeda Pharmaceutical Company Limited, priority 2014, dated 2015)

What was measured:
human orexin receptor 1 = human orexin receptor 1 (Homo sapiens (Human), UniProt O43613); assay: Orexin antagonist activity, intracellular calcium FLIPR assay, RBL-2H3 cells expressing human orexin receptor 1; format: cell-based; details: RBL-2H3 cells stably expressing human orexin receptor 1; orexin-A at approx. 80% maximal response; compound added 15 minutes before; read-out: Human Orexin1R IC50
human orexin receptor 1, sequence (O43613 whole entry): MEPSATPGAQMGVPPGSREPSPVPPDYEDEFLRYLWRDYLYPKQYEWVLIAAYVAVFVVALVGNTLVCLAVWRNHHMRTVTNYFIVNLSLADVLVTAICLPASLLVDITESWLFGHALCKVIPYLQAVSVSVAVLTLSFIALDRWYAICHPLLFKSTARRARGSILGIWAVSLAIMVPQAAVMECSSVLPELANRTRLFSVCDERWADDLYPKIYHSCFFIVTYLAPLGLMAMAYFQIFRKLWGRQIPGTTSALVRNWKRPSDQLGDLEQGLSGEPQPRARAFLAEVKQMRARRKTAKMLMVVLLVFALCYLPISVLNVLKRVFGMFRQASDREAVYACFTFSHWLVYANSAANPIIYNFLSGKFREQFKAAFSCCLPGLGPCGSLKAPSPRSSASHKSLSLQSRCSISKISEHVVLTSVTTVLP

human orexin receptor 2 = human orexin receptor 2 (Homo sapiens (Human), UniProt O43614); assay: Orexin antagonist activity, intracellular calcium FLIPR assay, RBL-2H3 cells expressing human orexin receptor 2; format: cell-based; details: RBL-2H3 cells stably expressing human orexin receptor 2; orexin-A at approx. 80% maximal response; compound added 15 minutes before; read-out: Human Orexin2R IC50
human orexin receptor 2, sequence (O43614 whole entry): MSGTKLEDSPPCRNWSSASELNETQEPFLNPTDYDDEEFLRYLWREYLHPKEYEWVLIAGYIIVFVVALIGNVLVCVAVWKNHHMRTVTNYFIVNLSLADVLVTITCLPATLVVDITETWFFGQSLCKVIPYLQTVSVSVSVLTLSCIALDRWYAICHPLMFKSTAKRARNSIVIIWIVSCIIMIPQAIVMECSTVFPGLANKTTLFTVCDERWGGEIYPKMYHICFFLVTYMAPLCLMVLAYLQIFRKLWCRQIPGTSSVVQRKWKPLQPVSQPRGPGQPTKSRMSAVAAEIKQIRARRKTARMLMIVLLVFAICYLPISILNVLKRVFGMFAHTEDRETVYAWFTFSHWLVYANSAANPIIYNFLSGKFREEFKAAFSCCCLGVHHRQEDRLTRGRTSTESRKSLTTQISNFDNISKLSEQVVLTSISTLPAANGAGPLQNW

Row | IC50 (human orexin receptor 1) [nM] | IC50 (human orexin receptor 2) [nM] | SMILES
1 | 22 | > 10000 | C[C@]1(Nc2cnc(C(F)(F)F)cn2)CCC[C@@H]1NC(=O)c1cc(F)ccc1-n1nccn1 [Example 84, 5-Fluoro-N-[(1S,2S)-2-methyl-2-{[5-(trifluoromethyl)pyrazin-2-yl]amino}cyclopentyl]-2-(2H-1,2,3-triazol-2-yl)benzamide]
2 | 18 | > 10000 | C[C@]1(Nc2cnc(C(F)(F)F)cn2)CCC[C@@H]1NC(=O)c1ncccc1-n1cccn1 [Example 85, N-[(1S,2S)-2-Methyl-2-{[5-(trifluoromethyl)pyrazin-2-yl]amino}cyclopentyl]-3-(1H-pyrazol-1-yl)pyridine-2-carboxamide]
3 | 129 | > 10000 | CCOc1cccnc1C(=O)N[C@H]1CCC[C@]1(C)Nc1cnc(C(F)(F)F)cn1 [Example 86, 3-Ethoxy-N-[(1S,2S)-2-methyl-2-{[5-(trifluoromethyl)pyrazin-2-yl]amino}cyclopentyl]pyridine-2-carboxamide]
4 | 8 | > 10000 | C[C@]1(Nc2cnc(C(F)(F)F)cn2)CCC[C@@H]1NC(=O)c1c(Cl)cccc1-n1nccn1 [Example 87, 2-Chloro-N-[(1S,2S)-2-methyl-2-{[5-(trifluoromethyl)pyrazin-2-yl]amino}cyclopentyl]-6-(2H-1,2,3-triazol-2-yl)benzamide]
5 | 166 | > 10000 | C[C@]1(Nc2cnc(C(F)(F)F)cn2)CCC[C@@H]1NC(=O)c1c(F)cccc1F [Example 88, 2,6-Difluoro-N-[(1S,2S)-2-methyl-2-{[5-(trifluoromethyl)pyrazin-2-yl]amino}cyclopentyl]benzamide]
6 | 140 | > 10000 | C[C@]1(Nc2cnc(C(F)(F)F)cn2)CCC[C@@H]1NC(=O)c1ncccc1C1CC1 [Example 89, 3-Cyclopropyl-N-[(1S,2S)-2-methyl-2-{[5-(trifluoromethyl)pyrazin-2-yl]amino}cyclopentyl]pyridine-2-carboxamide]
7 | 68 | > 10000 | C[C@]1(Nc2cnc(C(F)(F)F)cn2)CCC[C@@H]1NC(=O)c1ncccc1OC(F)(F)F [Example 90, N-[(1S,2S)-2-Methyl-2-{[5-(trifluoromethyl)pyrazin-2-yl]amino}cyclopentyl]-3-(trifluoromethoxy)pyridine-2-carboxamide]
8 | 6 | > 10000 | C[C@]1(Nc2cnc(C(F)(F)F)cn2)CCC[C@@H]1NC(=O)c1ccccc1-c1ncccn1 [Example 91, N-[(1S,2S)-2-Methyl-2-{[5-(trifluoromethyl)pyrazin-2-yl]amino}cyclopentyl]-2-(pyrimidin-2-yl)benzamide]
9 | 8 | 5570 | C[C@]1(Nc2cnc(C(F)(F)F)cn2)CCC[C@@H]1NC(=O)c1cc(Cl)ccc1-n1nccn1 [Example 92, 5-Chloro-N-[(1S,2S)-2-methyl-2-{[5-(trifluoromethyl)pyrazin-2-yl]amino}cyclopentyl]-2-(2H-1,2,3-triazol-2-yl)benzamide]
10 | 35 | > 10000 | CC1(Nc2ncc(C(F)(F)F)cn2)CCCC1NC(=O)c1ccccc1-n1nccn1 (centres unmarked) [Example 93, N-(2-Methyl-2-{[5-(trifluoromethyl)pyrimidin-2-yl]amino}cyclopentyl)-2-(2H-1,2,3-triazol-2-yl)benzamide]
11 | 19 | 1070 | CC1(Nc2ccc(C(F)(F)F)cn2)CCCC1NC(=O)c1ccccc1-n1nccn1 (centres unmarked) [Example 95, N-(2-Methyl-2-{[5-(trifluoromethyl)pyridin-2-yl]amino}cyclopentyl)-2-(2H-1,2,3-triazol-2-yl)benzamide]
12 | 86 | 1360 | CC1(Nc2ccc(OC(F)(F)F)cn2)CCCC1NC(=O)c1ccccc1-n1nccn1 (centres unmarked) [Example 96, N-(2-Methyl-2-{[5-(trifluoromethoxy)pyridin-2-yl]amino}cyclopentyl)-2-(2H-1,2,3-triazol-2-yl)benzamide]
13 | 122 | > 10000 | O=C(N[C@H]1CCC[C@@H]1Nc1ccc(C(F)(F)F)cn1)c1cc(Cl)ccc1-n1nccn1 [Example 97, 5-Chloro-2-(2H-1,2,3-triazol-2-yl)-N-[(1S,2S)-2-{[5-(trifluoromethyl)pyridin-2-yl]amino}cyclopentyl]benzamide]
14 | 160 | > 10000 | O=C(N[C@H]1CCC[C@@H]1Nc1ccc(C(F)(F)F)cn1)c1cccc(F)c1-n1nccn1 [Example 98, 3-Fluoro-2-(2H-1,2,3-triazol-2-yl)-N-[(1S,2S)-2-{[5-(trifluoromethyl)pyridin-2-yl]amino}cyclopentyl]benzamide]
15 | 153 | > 10000 | O=C(N[C@H]1CCC[C@@H]1Nc1ccc(C(F)(F)F)cn1)c1cc(F)cc(F)c1-n1nccn1 [Example 99, 3,5-Difluoro-2-(2H-1,2,3-triazol-2-yl)-N-[(1S,2S)-2-{[5-(trifluoromethyl)pyridin-2-yl]amino}cyclopentyl]benzamide]
16 | 128 | > 10000 | O=C(N[C@H]1CCC[C@@H]1Nc1ccc(C(F)(F)F)cn1)c1ncccc1-n1nccn1 [Example 100, 3-(2H-1,2,3-Triazol-2-yl)-N-[(1S,2S)-2-{[5-(trifluoromethyl)pyridin-2-yl]amino}cyclopentyl]pyridine-2-carboxamide]
17 | 310 | > 10000 | O=C(N[C@H]1CCC[C@@H]1Nc1ccc(C(F)(F)F)cn1)c1ncccc1-n1cccn1 [Example 101, 3-(1H-Pyrazol-1-yl)-N-[(1S,2S)-2-{[5-(trifluoromethyl)pyridin-2-yl]amino}cyclopentyl]pyridine-2-carboxamide]
18 | 46 | > 10000 | O=C(N[C@H]1CCC[C@@H]1Nc1ccc(C(F)(F)F)cn1)c1c(F)cccc1-n1nccn1 [Example 102, 2-Fluoro-6-(2H-1,2,3-triazol-2-yl)-N-[(1S,2S)-2-{[5-(trifluoromethyl)pyridin-2-yl]amino}cyclopentyl]benzamide]
19 | 8 | 7900 | CC1(Nc2ncc(C(F)(F)F)cc2F)CCCC1NC(=O)c1ncccc1-n1nccn1 (centres unmarked) [Example 103, N-(2-{[3-Fluoro-5-(trifluoromethyl)pyridin-2-yl]amino}-2-methylcyclopentyl)-3-(2H-1,2,3-triazol-2-yl)pyridine-2-carboxamide]
20 | 39 | > 10000 | O=C(N[C@H]1CCC[C@@H]1Nc1ncc(C(F)(F)F)cc1F)c1ccccc1-n1nccn1 [Example 105, N-[(1S,2S)-2-{[3-Fluoro-5-(trifluoromethyl)pyridin-2-yl]amino}cyclopentyl]-2-(2H-1,2,3-triazol-2-yl)benzamide]
21 | 29 | > 10000 | O=C(N[C@H]1CCC[C@@H]1Nc1ncc(C(F)(F)F)cc1Cl)c1ccccc1-n1nccn1 [Example 106, N-[(1S,2S)-2-{[3-Chloro-5-(trifluoromethyl)pyridin-2-yl]amino}cyclopentyl]-2-(2H-1,2,3-triazol-2-yl)benzamide]
22 | 27 | > 10000 | O=C(N[C@H]1CCC[C@@H]1Nc1ncc(C(F)(F)F)cc1Br)c1ccccc1-n1nccn1 [Example 107, N-[(1S,2S)-2-{[3-Bromo-5-(trifluoromethyl)pyridin-2-yl]amino}cyclopentyl]-2-(2H-1,2,3-triazol-2-yl)benzamide]
